This assay deals with NPM1 (nucleophosmin 1) (Homo sapiens, UniProt P06748). The assay is described as follows: surface plasmon resonance. Format: binding.
NPM1 (nucleophosmin 1), sequence (P06748 whole entry): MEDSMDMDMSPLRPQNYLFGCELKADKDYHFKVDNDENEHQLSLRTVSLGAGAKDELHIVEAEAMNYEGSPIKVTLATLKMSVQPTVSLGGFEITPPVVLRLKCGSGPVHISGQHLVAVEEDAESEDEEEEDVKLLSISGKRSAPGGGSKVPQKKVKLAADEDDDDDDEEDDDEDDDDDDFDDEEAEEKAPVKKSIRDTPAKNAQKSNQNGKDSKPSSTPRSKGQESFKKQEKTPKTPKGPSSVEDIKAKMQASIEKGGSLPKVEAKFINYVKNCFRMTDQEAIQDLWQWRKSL

Consider `C[C@H](CCC(=O)NCCS(=O)(=O)O)[C@H]1CC[C@H]2[C@@H]3[C@H](O)C[C@@H]4C[C@H](O)CC[C@]4(C)[C@H]3CC[C@]12C` [taurochenodeoxycholic acid], for which binding was put at a Kd of 20.9 µM.

For the origin of these results see article PMC12783763 (Nature Communications, 2025).
